Test results from patent publication US12552769B2, “Pyrimidine derivative” (ASKA PHARMACEUTICAL CO., LTD., priority 2021, dated 2026).

How the values were obtained:
[1] = target: T1, human mPGES-1 (Homo sapiens, UniProt O14684); assay: Test for mPGES-1 inhibitory activity; type: biochemical; settings: microsomes of COS-1 cells expressing human mPGES-1; PGH2 1 μM; 4° C.; PGE2 by EIA; read-out: IC50 value (mPGES-1 inhibition)
T1 construct: expressed in transfected cells; host or cells: COS-1 cells (microsomal fraction)
T1 sequence (O14684 1-152): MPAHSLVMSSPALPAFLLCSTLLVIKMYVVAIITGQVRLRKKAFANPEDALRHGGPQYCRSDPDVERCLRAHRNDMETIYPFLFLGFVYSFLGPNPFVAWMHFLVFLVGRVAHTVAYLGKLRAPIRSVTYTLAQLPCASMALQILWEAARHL
Experimental: Microsomes were prepared from COS-1 cells transiently transfected with a plasmid containing human mPGES-1 cDNA, and used as mPGES-1 enzyme. The mPGES-1 enzyme was diluted with a sodium phosphate buffer (pH 7.2) containing reduced glutathione (2.5 mM) and EDTA (1 mM), DMSO or a DMSO solution of a test compound (final concentration of DMSO was 1%) was added to the enzyme, and the mixture was preincubated at 4° C. for 15 minutes. Then, PGH2 as the substrate was added at a final concentration of 1 μM to start the enzymatic reaction, and after incubation at 4° C. for 4 minutes, a solution of ferric chloride (25 mM) and citric acid (50 mM) was added to terminate the enzymatic reaction. Generated PGE2 was measured by using Prostaglandin E2 Express EIA Kit (Cayman Chemical). IC50 values were determined by using a standard method.

[2] = Blood concentration (plasma pharmacokinetics after oral administration); type: in vivo; settings: female, guinea pig, guinea pigs, oral 10 mg/kg, mean (n = 2)
Experimental: The compound of Example 1 and the compound disclosed in International Patent Publication WO2017/73709, Example 182 were weighed in an amount of 10 mg each for a dose of 10 mg/kg, and each compound was finely ground in an agate mortar for about 30 seconds. 0.5% Methyl cellulose 400 solution (Fujifilm Wako Pure Chemicals Co., Ltd.) was added small portionwise to each compound to form a suspension, finally the mortar was washed with a small volume of 0.5% MC400 solution, which was combined with the suspension, and the total volume of the suspension was made to be 10 mL with 0.5% MC400 solution. The suspension was sonicated for approximately 1 minute to prepare a 1 mg/mL solution for administration. The solution was administered to two female guinea pigs at a dose of 10 mL/kg using a flexible oral catheter (RZ-1, Nippon Clea), and blood was collected 0.5, 1, 2, 4, 6, 10, and 24 hours after the oral administration, and centrifuged to obtain plasma. Plasma concentrations of the compounds were measured by the LC-MS/MS (liquid chromatography-tandem mass spectrometry) method.

[3] = tested on: UGT; assay: Metabolic stability test (UGT), rat microsomes; type: in vitro ADME; settings: Rat liver or small intestine microsomes 0.5 mg protein/mL, compound 1 μM, UDPGA 2 mM, 5 minutes at 37° C.
Experimental: (§1) DMSO was added to the compound of Example 1 to dissolve the compound, and then acetonitrile and water were added to prepare a test compound solution (10 μM). The test compound solution (final concentration 1 μM), a potassium phosphate buffer (pH 7.4) containing MgCl2 (9 mM) and alamethicin (25 μg/mL), and a rat or guinea pig liver or small intestine microsomal suspension were mixed (final concentration 0.5 mg protein/mL) under ice cooling. After 5 minutes of pre-incubation at 37° C. with stirring, a UDPGA solution (final concentration 2 mM) was added to initiate the reaction. After 5 minutes of incubation at 37° C. with stirring, 3-fold volume of acetonitrile was added, and the resulting mixture was stirred to terminate the enzymatic reaction. The reaction mixture was centrifuged (1500×g, 10 minutes, 4° C.), and the supernatant was mixed with an internal standard solution to prepare a measurement sample. The concentration of the compound in the sample was determined by LC-MS/MS. A sample in which the enzymatic reaction was not allowed was separately prepared, and the concentration measured for this sample was used as the initial value. For comparison, the compound of International Publication WO2017/73709, Example 182 was tested in the same manner.

[4] = tested on: UGT; assay: Metabolic stability test (UGT), guinea pig microsomes; type: in vitro ADME; settings: Guinea pig liver or small intestine microsomes 0.5 mg protein/mL, compound 1 μM, UDPGA 2 mM, 5 minutes at 37° C.
Experimental: as §1

[5] = Solubility test; type: physicochemical; settings: aqueous buffer, kinetic from dmso stock; JP2 solution (pH 6.8), 10 mM DMSO solution diluted 50-fold, incubation 16 to 24 hours
Experimental: A 10 mM solution of the compound of Example 1 in DMSO was prepared, and diluted 50-fold with JP2 solution (pH 6.8). After incubation for 16 to 24 hours, the test solution was filtered, and the concentration of the compound in the filtrate was determined by HPLC-UV or with a plate reader. For comparison, the compound of International Patent Publication WO2017/73709, Example 182 was tested in the same manner.

CC(C)(F)C(=O)NCc1ccc(C(F)(F)F)c(-c2nc(-c3ccc(C(F)(F)F)cn3)cc(=O)[nH]2)c1F [Example 1, 2-Fluoro-N-(2-fluoro-3-{6-oxo-4-[5-(trifluoromethyl)pyridin-2-yl]-1,6-dihydropyrimidin-2-yl}-4-(trifluoromethyl)benzyl)-2-methylpropanamide]
IC50 [1]: 1.8 nM
AUC(0-inf) [2]: 62.1 µM·h
AUC(0-t) [2]: 42.4 µM·h
Cmax [2]: 5.63 µM
Tmax [2]: 1.5 h
half-life [2]: 13.3 h
MRT inf ([2]; read-out: MRT0-∞): 18.3 h
UGT metabolic stability [3]: 124 μL/min/mg protein
UGT metabolic stability [4]: 130 μL/min/mg protein
solubility [5]: > 110 µg/mL
